Marks after values point to notes of the source that are not given here.
Assays:
Megasphaera elsdenii = experiment: qPCR relative quantification of Megasphaera elsdenii; assay type: cell-based; conditions: 12 hours of incubation
Method: (§1) Rumen cannulated calves which received a mixed ration mainly composed of concentrate (90:10) were used as rumen fluid donor; feed composition is presented in Table 1. The inoculum was collected and filtered through two-layer surgical gauze and kept in thermo pots. Flavonoids (Table 2) plus 600 mg of concentrate (Table 1) and 60 mg of barley straw as the substrate were dosed by triplicate in preheated bottles (39° C.) and maintained under anaerobic conditions. Flavonoids isonaringin, neoeritrocin, poncirin were purchased from INDOFINE Chemical Company, Inc (USA). 10 ml of rumen fluid and 40 ml of incubation medium were added to the bottles (McDougall, El (1948) Studies on ruminant saliva. 1. The composition and output of sheep's saliva. Biochem J. 43(1) 99-109). Once the bottles were filled and the anaerobic condition was applied, the bottles were sealed and the incubation process was started in a hot water bath. Pressure readings were made at 2, 4, 6, 8, 12, 24, 36 and 48 hours. Each sample was incubated in triplicate in two sets or batches.
(§2) After 12 hours of incubation, one bottle (replicate) from each treatment was opened, pH was recorded and the bottle was sampled for volatile fatty acids (Jouany, J. P., 1982 Science des Aliments 2, 131-144), lactate (Taylor, K. A. C. C., 1996. Appl. Biochem. Biotechnol. Enzym. Eng. Biotechnol. 56, 49-58) and ammonia (Chaney, A. L., Marbach, E. P., 1962. Clin. Chem. 8, 130-132) analyses.
(§3) The environmental DNA was extracted using the technique proposed by Yu and Morrison (2004). Quantification of Streptococcus bovis, Megasphaera elsdenii and Selenomonas ruminantium DNA was done by qPCR using specific primers (Tajima, K. et al. 2001. Appl. Environ. Microb. 67, 2766-2774; Ouwerkerk, D., et al. 2002. J. Appl. Microbiol. 92, 753-758). Results were statistically analyzed using the PROC MIXED procedure of SAS statistical package (SAS, 2000, User's guide: Statistics, version 8 editions inst., Inc., Cary, N.C.). The least significant difference was used to compare the means. Differences between means in which P<0.05 were accepted as significant.

[1] = tested on: "in vitro" rumen fluid culture; experiment: Biogas production in "in vitro" rumen fluid culture (pressure meter); assay type: cell-based, calves; set-up: Average biogas production / Cumulative biogas production / Biogas production: unit not given here; conditions: Exp 1; for Average biogas production: average over doses and incubation times
Method: (§4) Two trials following an identical experimental protocol were designed to study the effect of different pure flavonoids on rumen fermentation using a simulatory “in vitro” system based on the experimental protocol described by Theodorou M K et al. (1994) Animal Feed Science and Technology, 48 (3), p. 185-197; Mauricio, R. M., et al. (1999) Animal Feed Science and Technology 79, 321-330.
Gas production was determined from a semi-automatic pressure meter, the relationship between pressure levels and the produced gas volume was previously calculated.
as §1, with “Pressure readings were made at 2, 4, 6, 8, 12, 24, 36 and 48 hours.” left out

[2] = tested on: "in vitro" ruminal fluid cultures; experiment: Ammonia (N-NH3) concentration in "in vitro" ruminal fluid cultures; assay type: cell-based, calves; conditions: 72 h
Selenomonas ruminantium = experiment: qPCR relative quantification of Selenomonas ruminantium; assay type: cell-based; conditions: 12 hours of incubation
Method: as §1, §2, §3

Streptococcus bovis = experiment: qPCR relative quantification of Streptococcus bovis; assay type: cell-based; conditions: 12 hours of incubation
Method: as §1, §2, §3

ruminal bacteria = experiment: Bacterial DNA concentration by qPCR; assay type: cell-based, calves; conditions: 12 hours of incubation
Method: as §1, §2, §3

[3] = tested on: "in vitro" ruminal fluid cultures; experiment: Ammonia (N-NH3) concentration in "in vitro" ruminal fluid cultures; assay type: cell-based, calves
Description: as §4, §1, §2

[4] = tested on: methanogenic (archea) populations; experiment: Methane production in "in vitro" rumen fluid culture; assay type: cell-based, calves; set-up: Average methane production / Accumulated methane production / Methane production / Cumulative methane production: unit not given here; conditions: Exp 1
Description: as §4
as §1, with “Pressure readings were made at 2, 4, 6, 8, 12, 24, 36 and 48 hours.” left out
The effects of flavonoids substances on fermentation activity of certain archea populations which are theoretically responsible for the methane production were analyzed.
The experimental design allows determining whether the effect of flavonoids on methane reduction was derived from a general reduction in microbial activity and biogas production or contrarily flavonoid affects specifically on methanogenic (archea) populations. The presence of flavonoids in the culture medium reduced methane contribution in the total biogas production (P<0.05) although, again, the aforementioned impact was heterogeneous.

[5] = tested on: "in vitro" ruminal fluid culture; experiment: Lactate concentration in "in vitro" ruminal fluid culture; assay type: cell-based, calves; conditions: 12 hours of incubation
Description: as §4, §1, §2

[6] = tested on: "in vitro" ruminal fluid cultures; experiment: Volatile fatty acid concentration and molar proportions in "in vitro" ruminal fluid cultures; assay type: cell-based, calves
Description: as §4, §1
[…] P., 1982 Science des Aliments 2, 131-144), lactate (Taylor, K. A. C. C., 1996. Appl. Biochem. Biotechnol. Enzym. Eng. Biotechnol. 56, 49-58) and ammonia (Chaney, A. L., Marbach, E. P., 1962. Clin. Chem. 8, 130-132) analyses.

[7] = average over doses and incubation times

COc1ccc([C@@H]2CC(=O)c3c(O)cc(O[C@@H]4O[C@H](CO)[C@@H](O)[C@H](O)[C@H]4O[C@@H]4O[C@@H](C)[C@H](O)[C@@H](O)[C@H]4O)cc3O2)cc1 [Poncirin, poncirin]
Relative Quantification 2^(ΔΔCt) M. elsdenii (Megasphaera elsdenii): 0.98 ^ab
Cumulative biogas production ([1]; 12 h incubation): 180.63
Cumulative biogas production ([1]; 24 h incubation): 224.90
Cumulative biogas production ([1]; 48 h incubation): 262.00
Cumulative biogas production ([1]; 72 h incubation): 284.28
Average biogas production [1]: 237.95^cde
Average biogas production ([1]; listed as poncirin): 238
Biogas production ([1]; dose 1, 0.2 g/kg DM): 234.43
Biogas production ([1]; dose 2, 0.5 g/kg DM): 241.48
N-NH3 concentration [2]: 318.15 mg/L
Relative Quantification 2^(ΔΔCt) S. ruminantium (Selenomonas ruminantium): 0.68
Relative Quantification 2^(ΔΔCt) S. bovis (Streptococcus bovis): 0.44
Bacteria DNA (ruminal bacteria): 10.12 ^a μg/ml
N-NH3 concentration ([3]; 0 h (initial constant value)): 149.99 mg/L
N-NH3 concentration ([3]; 12 h): 159.33 mg/L
N-NH3 concentration, average (M) ([3]; average over incubation times): 209.16 mg/L
Accumulated methane production ([4]; 12 h): 19.19
Proportion of methane in the produced biogas ([4]; 12 h): 10.62
Accumulated methane production ([4]; 24 h): 24.43
Proportion of methane in the produced biogas ([4]; 24 h): 11.94
Accumulated methane production ([4]; 48 h): 30.50
Proportion of methane in the produced biogas ([4]; 48 h): 16.54
Accumulated methane production ([4]; 72 h): 34.07
Proportion of methane in the produced biogas ([4]; 72 h): 16.34
Average methane production [4, 7]: 27.04^de
Proportion of methane in the produced biogas [4, 7]: 13.86^cd
Average methane production ([4]; average over doses and incubation times, listed as poncirin): decreased
Methane production ([4]; dose 1, 0.2 g/kg DM): 26.61
Proportion of methane in the produced biogas ([4]; dose 1, 0.2 g/kg DM): 13.92
Methane production ([4]; dose 2, 0.5 g/kg DM): 27.47
Proportion of methane in the produced biogas ([4]; dose 2, 0.5 g/kg DM): 13.80
Lactate [5]: 87.5 mg/L
% Acetate, molar ratio ([6]; 0 h): 62.51 mol/100 mol
% Butyrate, molar ratio ([6]; 0 h): 9.07 mol/100 mol
% Propionate, molar ratio ([6]; 0 h): 20.03 mol/100 mol
A/P rate (acetate/propionate) ([6]; 0 h): 3.12
VFA concentration ([6]; 0 h (initial constant value)): 13.78 mmol/L
% Acetate, molar ratio ([6]; 12 h): 55.44 mol/100 mol
% Butyrate, molar ratio ([6]; 12 h): 9.61 mol/100 mol
% Propionate, molar ratio ([6]; 12 h): 29.52 mol/100 mol
A/P rate (acetate/propionate) ([6]; 12 h): 1.88
VFA concentration ([6]; 12 h): 36.98 mmol/L
% Acetate, molar ratio ([6]; 72 h): 55.36 mol/100 mol
% Butyrate, molar ratio ([6]; 72 h): 10.20 mol/100 mol
% Propionate, molar ratio ([6]; 72 h): 26.96 mol/100 mol
A/P rate (acetate/propionate) ([6]; 72 h): 2.05
VFA concentration ([6]; 72 h): 51.87 mmol/L
% Acetate, molar ratio, average (μ) ([6]; average over incubation times): 57.77 mol/100 mol
% Butyrate, molar ratio, average (μ) ([6]; average over incubation times): 9.63 ^a mol/100 mol
% Propionate, molar ratio, average (M) ([6]; average over incubation times): 25.51 ^b mol/100 mol
VFA concentration, average (μ) ([6]; average over incubation times): 34.21 mmol/L
% Propionate, molar ratio, average (M) ([6]; average over incubation times, listed as poncirin): improved
